Laboratory results from PubChem BioAssay (NCI).
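Exposure lasted 48 hours, with cells grown in 96-well plates and compounds tested at five concentrations. At the GI50, growth is halved. TGI marks complete inhibition of growth.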

Columns and labels:
Assay in all cases: NCI-60 cell line screen, 48 h
T-47D breast = tested on: T-47D breast
DU-145 prostate = tested on: DU-145 prostate
HS 578T breast = tested on: HS 578T breast
DMS 273 small cell lung = tested on: DMS 273 small cell lung
DMS 114 small cell lung = tested on: DMS 114 small cell lung
LXFL 529 NSCLC = tested on: LXFL 529 NSCLC
MDA-N = tested on: MDA-N
HOP-18 NSCLC = tested on: HOP-18 NSCLC

Row | SMILES | GI50 (T-47D breast) [µM] | TGI (T-47D breast) [µM] | GI50 (DU-145 prostate) [µM] | TGI (DU-145 prostate) [µM] | GI50 (HS 578T breast) [µM] | TGI (HS 578T breast) [µM] | also measured
1 | C1=Cc2ccccc2Nc2ccccc21 | > 100 | > 100 | > 100 | > 100 | > 100 | > 100 | 
2 | COc1cc(-c2nc(Nc3nc4ccccc4[nH]3)nc(N)c2C#N)cc(OC)c1OC | 4.27 | 52.8 | 10.9 | 35.6 | 0.33 | > 100 | 
3 | O=C1CC(c2ccc(N3CCOCC3)cc2)(c2ccsc2)NC(=O)C1Sc1ccccc1Cl (centres undefined) | 85.9 | > 100 | 85 | > 100 | 3.66 | > 100 | 
4 | COc1ccc(C(=O)OCC2OC(n3cnc4c(=S)nc[nH]c43)C(OC(=O)c3ccc(OC)cc3)C2OC(=O)c2ccc(OC)cc2)cc1 (centres undefined) |  |  |  |  |  |  | TGI (DMS 273 small cell lung): > 100 µM; TGI (DMS 114 small cell lung): > 100 µM; TGI (LXFL 529 NSCLC): > 100 µM
5 | O=C(CN1CCN(c2ncnc3ccccc23)CC1)Nc1ccc(Cl)cc1C(=O)c1ccccc1Cl | 0.339 | 3.25 | 0.368 | 12 | 0.478 | 3.7 | 
6 | Cc1ccc([N+](=O)[O-])c2c(NCCNC(=O)Cn3ccnc3[N+](=O)[O-])ccnc12 |  | > 100 |  | > 100 |  | > 100 | TGI (MDA-N): > 100 µM
7 | Cn1nccc1Nc1nccc(-c2cc3c(s2)C(C)(C)N(CCN2CCOCC2)C3=O)n1 | 17.4 | > 77.7 | 25.8 | > 100 | 15.9 | > 100 | 
8 | Cc1nc(Cl)nc(Cl)c1C |  |  |  |  |  | > 100 | 
9 | COc1ccc(C[C@@H]2Cc3cc(OC)c(OC)cc3CN2C)cc1 |  |  |  |  |  |  | TGI (LXFL 529 NSCLC): > 100 µM
10 | CC1(C)COC(C23C4C5C2C2C3C4C52I)=N1 (centres undefined) |  |  |  |  |  |  | TGI (DMS 114 small cell lung): > 100 µM; TGI (HOP-18 NSCLC): > 100 µM; TGI (LXFL 529 NSCLC): > 100 µM
11 | CCOC(C)C(/C=N/NC(N)=S)=NNC(N)=S (centres undefined) |  |  |  |  |  |  | TGI (LXFL 529 NSCLC): > 100 µM
12 | CCCN(CCCCC(NC(C)=O)C(=O)NCc1ccccc1)C(=O)N(C)N=O (centres undefined) |  |  |  |  |  |  | TGI (DMS 273 small cell lung): > 100 µM; TGI (DMS 114 small cell lung): > 100 µM; TGI (LXFL 529 NSCLC): > 100 µM
13 | C/C=C(\C)C(=O)N[C@H]1CC[C@]2(C)C3CC[C@@]4(C)C(CC[C@@H]4C(C)N(C)C)C3CCC2[C@H]1OC(C)=O (some centres undefined) | 1.74 | 5.42 | 2.85 | 10.9 | 1.75 | 4.7 | 
14 | COc1cc(/C=C2\[C@H]3c4c(c(OC)c(C)c(OC)c4OC)C[C@@H](C(=O)N2Cc2ccccc2)N3C(=O)OCC(C)C)c(OC)c(C)c1OC |  |  |  |  |  |  | TGI (DMS 273 small cell lung): > 100 µM; TGI (HOP-18 NSCLC): > 100 µM; TGI (LXFL 529 NSCLC): > 100 µM
15 | CCCN(CCC)C(=O)C1=Cc2ccc(-c3ccc(C(=O)N4CCCC4)cc3)cc2N=C(N)C1 | 3.56 | 26.8 | 20.6 | 91.1 | 16 | 59 | 
16 | CC1=C(C(=O)Nc2ccc(F)c(Cl)c2)C(c2ccccc2Cl)NC(=S)N1 (centres undefined) | > 50 | > 50 | > 50 | > 50 | > 50 | > 50 | 
17 | CC1CC2(C)ON=C(c3ccccc3)N2c2ccccc2S1 (centres undefined) | 58.5 |  | 54.5 |  | 46.2 |  | GI50 (MDA-N): 34.2 µM

Row | SMILES | GI50 (T-47D breast) [µM] | TGI (T-47D breast) [µM] | GI50 (DU-145 prostate) [µM] | TGI (DU-145 prostate) [µM] | GI50 (HS 578T breast) [µM] | TGI (HS 578T breast) [µM] | also measured
18 | COc1cccc(C2c3cc4c(cc3OC(C)(O)C2C)OCO4)c1O (centres undefined) |  | 13.1 |  | 53.9 |  | 9.94 | TGI (MDA-N): 4.69 µM
19 | Cn1ccnc1C(=O)/C=C/c1ccc(C(=O)Nc2ccc(Cl)cc2)cc1 | 0.846 | > 33.3 | 1.32 | > 33.3 | 0.919 | > 33.3 | 
20 | COc1ccc2c(c1)C(=O)/C(=C/c1cccc(OCC(=O)Nc3nc4c(s3)CCCC4)c1)O2 | 1.93 | 4.34 | 0.499 | 1.22 | 2.28 | 10.1 | 
21 | COc1ccc(-c2[nH]c3ccccc3c2C=C(C#N)C#N)cc1 | 0.481 | > 100 | 0.484 | > 21.7 | 0.201 |  | 
22 | O=C(Nc1ccccc1O)c1cccc(NC2=C(Cl)C(=O)N(Cc3ccccc3)C2=O)c1 | 8.06 | 28.6 | 7.07 | 20.6 | 5.28 | 17.8 | 
23 | CC1=NN(c2ccccc2)C(=O)C1N=Nc1ccc([As](=O)(O)O)c(O)c1 (centres undefined) |  | > 100 |  | > 100 |  | > 100 | TGI (MDA-N): > 100 µM
24 | Cc1cc(N2CCCCC2)nc(N(CCCNc2ccnc3cc(Cl)ccc23)Cc2ccco2)n1 | 1.77 | 4.44 | 3.14 | 12.9 | 3.02 | 11.4 | 
25 | Cc1cc(NS(=O)(=O)c2ccc(N=Nc3cc(N=Nc4ccc(S(=O)(=O)Nc5cc(C)nc(C)n5)cc4)c4c(NC(=O)C(Cl)Cl)cccc4c3OC(=O)C(Cl)Cl)cc2)nc(C)n1 (tested in a mixture with another compound) |  |  |  |  |  |  | TGI (DMS 273 small cell lung): 83.9 µM; TGI (DMS 114 small cell lung): > 100 µM; TGI (HOP-18 NSCLC): 34.1 µM
26 | CCOC(=O)/C(=C\c1ccc(O)c(OC)c1)C(=O)c1ccccc1 |  |  |  | 61.4 |  |  | TGI (HOP-18 NSCLC): > 100 µM; TGI (LXFL 529 NSCLC): > 39.5 µM
27 | O=S(=O)(O)O.[NH-]C1CCCCC1[NH-].[Pt+2] (centres undefined) |  |  |  |  |  |  | GI50 (LXFL 529 NSCLC): > 100 µM; TGI (LXFL 529 NSCLC): > 100 µM
28 | Oc1ccc(-c2nnc3sc(-c4ccc(F)c(Oc5ccccc5)c4)nn23)cc1 | 16.4 | 76.3 | 35 | > 100 | 19.8 | 51.4 | 
29 | COc1cc(C(=O)c2ccc3c(c2)OCO3)cc(OC)c1OC | 5.3 | > 100 | 3.51 | > 65.7 | 2.54 | > 26.9 | 
30 | COc1cc2nc(-c3cnc(N(C)C)nc3)nc(NC3CCN(Cc4ccccc4)CC3)c2cc1OC | 1.81 | 4.14 | 1.57 | 3.05 | 1.71 | 3.99 | 
31 | CC(=O)N1N=C2/C(=C/c3ccccc3)CC(C)CC2C1c1ccccc1 (centres undefined) | 10.7 | 34.7 | 16.1 | 33.5 | 15.4 | 34.6 | 
32 | Cc1ccc(NC(=O)CCC(CC(=O)C(C)(C)C)=NNC(=O)C(=O)NN)cc1C |  |  |  |  |  |  | TGI (DMS 273 small cell lung): > 100 µM; TGI (HOP-18 NSCLC): > 100 µM; TGI (LXFL 529 NSCLC): > 100 µM
33 | O=c1c2cccc(Cl)c2sc2c(NCCCNCCO)nc3ccccc3c12 | 2.2 | 23 | 1.98 | 4.85 | 2.95 | 14.8 | 
